Laboratory results reported in patent US20200355685A1, “REAGENT SET FOR DETECTING INTERACTIONS BETWEEN BIOMOLECULES AND THEIR REGULATORY FACTORS, AND APPLICATIONS” (TSINGHUA UNIVERSITY, priority 2017, published 2020).
No end group written: not given here. Me3 = trimethyl (trimethylated lysine)

What was measured:
[1] = target: T1, interaction between P53 and MDM2 (Homo sapiens, UniProt Q00987); test: Phase transition droplet detection of the effect of a regulatory factor on the P53-MDM2 interaction (SGS-P53, mCherry-MDM2, His-SGP); assay type: binding; design: His-tag (N); made in house; host or cells: E. coli BL21 (DE3); conditions: MI-773 1.25-25 μM, ampicillin 25 μM; SGS-P53, mCherry-MDM2 and His-SGP all 0.5 μM; static incubation at 4° C.
T1 sequence (Q00987 with tags, fused parts or gaps): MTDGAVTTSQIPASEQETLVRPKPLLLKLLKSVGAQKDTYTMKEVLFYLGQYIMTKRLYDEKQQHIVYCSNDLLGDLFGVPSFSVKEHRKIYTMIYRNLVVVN
Method: the solutions of SGS-P53, mCherry-MDM2, His-SGP and ampicillin were mixed, and then 20 μL of the resulting mixture was transferred to a 384-microwell plate to obtain an ampicillin control system and the concentrations of SGS-P53, mCherry-MDM2 and His-SGP were all 0.5 μM in the ampicillin control system, and the concentration of ampicillin was 25 μM;
According to the above system, the solutions of SGS-P53, mCherry-MDM2, His-SGP and MI-773 were mixed, and then 20 μL of the resulting mixture was transferred into a 384-microwell plate. Different concentrations of MI-773 were set to obtain experimental systems with different concentrations of MI-773. The concentration of MI-773 in each experimental system was 0 (i.e., KMEI buffer), 1.25, 2.5, 5, 10, 15, and 25 μM, respectively, one concentration per well, and in each experimental system, the concentrations of SGS-P53, mCherry-MDM2 and His-SGP were all 0.5 μM.
Each of the above systems was subjected to static incubation at 4° C. until the phase transition droplets in the systems in which phase transitions occurred completely settled to the bottom of the well plate, and the image of each system was collected using a confocal high-content imaging microscope and the intensity of the red fluorescence signal in the phase transition droplets in each well plate was counted and analyzed.

[2] = target: T1, interaction between P53 and MDM2; test: Intracellular detection of the P53-MDM2 interaction in HEK293 cells co-transfected with GFP-NUPN-P53 and mCherry-MDM2; assay type: cell-based; conditions: system 8, final concentration of 5 μM, same field before and after treatment
Method: Each recombinant vector obtained in step I was transfected (or co-transfected) into HEK293 cells (adherent culture) according to the following combinations, and the transfection reagent Hifectin I (Beijing Dinoao Biotechnology Co., Ltd.) was used, and the operation was performed according to the instruction of the reagent. The combinations and the amount of the transfection vector(s) per 105 HEK293 cells were as follows:
combination 1: pcDNA3.1-GFP-NUPN, the transfection dosage of the vector was 1 μg; combination 2: pcDNA3.1-mCherry, the transfection dosage of the vector was 1 μg; combination 3: pcDNA3.1-GFP-NUPN+pcDNA3.1-mCherry, the transfection dosages of these two vectors were 0.5 μg and 0.5 μg, respectively; combination 4: pcDNA3.1-GFP-NUPN-P53, the transfection dosage of the vector was 1 μg; combination 5: pcDNA3.1-GFP-NUPN-P53+pcDNA3.1-mCherry, the transfection dosages of these two vectors were 0.5 μg and 0.5 μg, respectively; combination 6: pcDNA3.1-mCherry-MDM2, the transfection dosage of the vector was 1 μg; combination 7: pcDNA3.1-GFP-NUPN+pcDNA3.1-mCherry-MDM2, the transfection dosages of these two vectors were 0.5 μg and 0.5 μg, respectively; combination 8: pcDNA3.1-GFP-NUPN-P53+pcDNA3.1-mCherry-MDM2, the transfection dosages of these two vectors were 0.5 μg and 0.5 μg, respectively. […]

[3] = target: T2, interaction between FKBP and FRB (Homo sapiens, UniProt P42345+P62942); test: Phase transition droplet detection of the effect of a regulatory factor on the FKBP-FRB interaction (SGS-FKBP, mCherry-FRB, His-SGP); assay type: binding; conditions: rapamycin 0.2-1.0 μM, ampicillin control, mCherry-FRB and His-SGP all 1 μM, static incubation at 4° C.
T2 construct: His-SGS (His-tag, SmF, GFP, SH3 and linking regions); His-tag (N); made in house; host or cells: E. coli BL21 (DE3)
T2 sequence (P62942 with tags, fused parts or gaps): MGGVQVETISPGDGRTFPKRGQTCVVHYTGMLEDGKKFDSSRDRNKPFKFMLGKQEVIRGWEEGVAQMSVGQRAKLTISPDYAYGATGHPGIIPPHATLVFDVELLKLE
T2 sequence (P42345 with tags, fused parts or gaps): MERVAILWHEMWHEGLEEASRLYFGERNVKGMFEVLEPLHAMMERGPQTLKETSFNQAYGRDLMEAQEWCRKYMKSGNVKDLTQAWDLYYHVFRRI
Excerpt: Different concentrations of rapamycin were set to obtain experimental systems with different concentrations of rapamycin.

[4] = target: T3, CD (Homo sapiens, UniProt P83916); test: Phase transition droplet detection of the interaction between H3K9me3 and CD (SGS-CD, His-SGP, Hfq-mCherry-PDZ); assay type: binding; conditions: systems 15-20 with Hfq-mCherry-PDZ; mixture completely composed of the named peptide; all components 1 μM
T3 construct: His-SGS (His-tag, SmF, GFP, SH3 and linking regions); made in house; host or cells: E. coli BL21 (DE3)
T3 sequence (P83916 19-83): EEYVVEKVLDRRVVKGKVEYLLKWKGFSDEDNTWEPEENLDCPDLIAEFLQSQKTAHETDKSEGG
Method: The concentrations of His-SGS, SGS-CD, His-SGP, Hfq-mCherry-PDZ, mCherry-PDZ and the mixture of H3K9me3-KKETPV and H3K9-KKETPV in the corresponding systems were all 1 μM:
In Table 2, “+” represents that the substance is contained; “−” represents that the substance is not contained; “*” represents a mixture of H3K9me3-KKETPV and H3K9-KKETPV. In the systems 9-14, the molar percentages of H3K9me3-KKETPV in the mixture of H3K9me3-KKETPV and H3K9-KKETPV were 0, 0.2, 0.4, 0.6, 0.8 and 1.0, respectively, and in the systems 15-20, the molar percentages of H3K9me3-KKETPV in the mixture of H3K9me3-KKETPV and H3K9-KKETPV were 0, 0.2, 0.4, 0.6, 0.8 and 1.0, respectively.
Each of the above systems was subjected to a static incubation at 4° C. until the phase transition droplets in the systems in which phase transitions occurred completely settled to the bottom of the well plate, and the images were collected using a confocal high-content imaging microscope.

Compound | effect on the interaction between P53 and MDM2 (red fluorescence signal in the phase transition droplets) [1] | effect on the interaction between P53 and MDM2 in cells (accumulation of red fluorescent signal in the second phase) [2] | effect on the interaction between FRB and FKBP (red fluorescence signal in the phase transition droplets) [3] | red fluorescence signal (mCherry) in the phase transition droplets [4]
CC(C)(C)C[C@@H]1N[C@@H](C(=O)N[C@H]2CC[C@H](O)CC2)[C@H](c2cccc(Cl)c2F)[C@]12C(=O)Nc1cc(Cl)ccc12 [MI-773] | significantly inhibit | significantly inhibit |  | 
CC1(C)S[C@@H]2[C@H](NC(=O)[C@H](N)c3ccccc3)C(=O)N2[C@H]1C(=O)O [ampicillin] | does not affect |  | does not affect | 
CN[C@@H](C)C(=O)N[C@H](C(=O)N1CCC[C@H]1C(=O)Nc1snnc1-c1ccccc1)C1CCCCC1 [GDC0152] |  | does not affect |  | 
H3K9-KKETPV: unmethylated peptide as shown in SEQ ID NO: 23, used as a control (ARTKQTARGGSGGSGGSWGGSKKETPVAV) |  |  |  | no significant red fluorescence
ARTK (Me) 3QTARGGSGGSGGSWGGSKKETPVAV (ARTK(Me3)QTARGGSGGSGGSWGGSKKETPVAV) [H3K9me3-KKETPV] |  |  |  | reached the highest
